Article PMC11992618, “Development of cyclopeptide inhibitors specifically disrupting FXR–coactivator interaction in the intestine as a novel therapeutic strategy for MASH” (Life Metabolism, 2025)

What was measured:
Subacute toxicity test = assay type: in vivo, mouse
Description: For the subacute toxicity test of DC646, oral injection of vehicle, 20 mg/kg, 100 mg/kg, or 200 mg/kg DC646 to C57BL/6 male mice was carried out for 7 days. During the week, the body weight and food/water intake were monitored every day. The serum, liver, kidneys, brain, heart, lungs, spleen, testicle, and epididymis were weighed and collected 2 h after the final dosing.
Supplementary Figure S10 Subacute toxicity test of DC646 at 20 mg/kg, 100 mg/kg, or 200 mg/kg. (a) Strategy of animal experiment. (b) Body weight. (c) Food intake. (d) Water intake. (e) Representative pictures of organ morphologies. (f) 1/3 Intestine length and colon length. (g) Organ weight. (h and i) Serum ALT (h) and AST(i) levels. (j) H&E staining of heart, liver, spleen, lung, and kidney. n = 5 in each group. Data are presented as the mean ± SEM and analyzed by one-way ANOVA with Dunnett’s post hoc test.

PPARδ = molecular target: T1, PPARδ (Homo sapiens, UniProt Q03181); assay: PPARδ cell-based reporter assay; conditions: 10 μmol/L; inhibition of agonist-induced receptor activation
T1 sequence (Q03181 1-441): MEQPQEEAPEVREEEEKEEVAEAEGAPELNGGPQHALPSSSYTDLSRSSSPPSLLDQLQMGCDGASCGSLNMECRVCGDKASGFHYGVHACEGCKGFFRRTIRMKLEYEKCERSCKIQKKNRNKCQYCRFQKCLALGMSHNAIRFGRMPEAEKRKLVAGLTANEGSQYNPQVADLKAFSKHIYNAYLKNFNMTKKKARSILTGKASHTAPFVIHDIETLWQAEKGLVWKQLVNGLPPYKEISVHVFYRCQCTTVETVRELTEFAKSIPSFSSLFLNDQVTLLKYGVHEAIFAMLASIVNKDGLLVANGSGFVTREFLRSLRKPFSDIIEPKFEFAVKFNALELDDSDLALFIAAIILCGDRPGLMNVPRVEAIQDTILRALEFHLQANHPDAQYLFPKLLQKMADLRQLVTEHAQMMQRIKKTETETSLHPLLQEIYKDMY
Description: Inhibition% means inhibition percentage of agonist-induced receptor activation.

[1] = molecular target: T2, human FXR alpha (hFXRα)-LBD / SRC2-3 peptide (Homo sapiens, UniProt Q96RI1); assay: AlphaScreen assay, recruitment of coactivator peptide SRC2-3 to His-hFXRα-LBD; assay type: biochemical
T2 construct: 100 nmol/L 6*His-hFXRα-LBD and 100 nmol/L biotinylated co-factor peptide
T2 sequence (Q96RI1 262-486 limits assumed): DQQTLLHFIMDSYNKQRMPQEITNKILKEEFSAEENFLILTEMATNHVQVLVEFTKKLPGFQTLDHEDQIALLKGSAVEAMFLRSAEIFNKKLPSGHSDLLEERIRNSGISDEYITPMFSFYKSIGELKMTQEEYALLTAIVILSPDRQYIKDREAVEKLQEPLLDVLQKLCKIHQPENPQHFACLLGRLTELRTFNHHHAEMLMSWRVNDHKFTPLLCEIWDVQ
Description: An AlphaScreen technology-based assay was performed according to the manufacturer’s instructions with a minor revision. Briefly, the experiment was conducted with compounds at the indicated concentrations, 100 nmol/L 6*His-hFXRα-LBD and 100 nmol/L biotinylated co-factor peptide in the buffer containing 50 mmol/L MOPS, 50 μmol/L CHAPS, 50 mmol/L NaF, and 0.1 mg/mL BSA, pH 7.4. The mixture was incubated with 50 μg/mL nickel acceptor beads and 50 μg/mL streptavidin donor beads in a 384-well plate under green light in the dark at room temperature, before conducting fluorescence measurement with excitation at 680 nm and emission at 550 nm on an Envision microplate analyzer (PE 2102-8340, PerkinElmer Life Sciences).

MCD diet-induced MASH = MCD diet-induced MASH mice, long-term model; assay type: in vivo, mouse; conditions: oral, 4 weeks
Description: For the long-term MASH model, 8- to 10-week-old male C57BL/6 J mice were fed with an MCS diet or MCD diet for 2 weeks, before the MCD models were administered with vehicle or GUDCA (50 mg/kg), OCA (30 mg/kg), and DC646 (10 mg/kg) for 4 weeks. The serum, liver, and intestine were collected 2 h after the final dosing. Male Fxr^△IE mice (8–10 weeks old) were fed with a GAN diet for 20 weeks and administered with vehicle or DC646 (10 mg/kg) from the 12th week for 8 weeks. The serum, liver, and intestine were collected 2 h after the final dosing.
The intestine and liver were frozen in liquid nitrogen and stored at −80°C. RNA was extracted, and complementary DNA was synthesized from 1 μg total RNA. RT-qPCR was performed on a Bio-Rad CFX384 Touch detection system (Bio-Rad). The primer sequences for RT-qPCR are shown in Supplementary Table S5. RNA levels were analyzed by 2-^ΔΔCt, normalized to 18S ribosomal RNA and expressed as fold change relative to the control group.
Hepatic TG and TC, and plasma ALT and AST levels were measured using commercial kits from Nanjing Jiancheng Bioengineering Institute according to the manufacturer’s instructions. To measure hepatic TG contents, liver tissues (~10 mg) were homogenized in 100 μL 1% TritonX-100 and centrifuged at 3000 rpm for 10 min. Supernatants were collected, and 2 μL samples were incubated with 200 μL reaction buffer at 37°C for 10 min. Hepatic TG or TC levels were read at 510 or 500 nm using a microplate reader (Versamax, Molecular Devices) and normalized using the protein concentration. To measure plasma ALT and AST levels, reaction buffer 1 and reaction buffer 2 were mixed at a ratio of 1:1, before adding 2 μL plasma sample and 200 μL mixed reaction buffer in a 96-well plate. The data were acquired using the kinetic mode with an interval of 30 s and 31 total reads at 340 nm using a microplate reader (Versamax, Molecular Devices).
Tissue specimens were fixed in 10% formalin for 12–24 h before being dehydrated and paraffin-embedded. The sections were stained with H&E. The NAS was calculated as a summary score including individual components of steatosis (0–3), lobular inflammation (0–3), and hepatocyte ballooning (0–2) for each liver section by a blinded liver pathologist, and the results were reviewed by a blinded hepatologist according to a previous protocol. To visualize liver fibrosis, paraffin-embedded tissue samples were stained with Sirius Red to characterize the collagen deposition. To visualize lipid accumulation and inflammation in the liver, frozen liver sections were stained with Oil Red O and F4/80, and images were acquired using a Leica DM6B laser microdissection system. At least three discontinuous liver sections were evaluated for each mouse.

[2] = C57BL/6 male mice, oral 20, 100, 200 mg/kg, 7 days
[3] = DC646 10 mg/kg, GUDCA 50 mg/kg, OCA 30 mg/kg

In the case of CC(C)C[C@@H]1NC(=O)[C@@H]2CN(CCO2)c2cccc3c2c(cn3[Si](C(C)C)(C(C)C)C(C)C)C[C@H](NS(=O)(=O)C(F)(F)F)C(=O)OCCCCNC(=O)[C@H](CC(C)C)NC(=O)[C@@H]2CN(CCO2)c2cccc3c2c(cn3[Si](C(C)C)(C(C)C)C(C)C)C[C@H](NS(=O)(=O)C(F)(F)F)C(=O)OCCCCNC1=O [DC646, N,N'-((1^2R,1^4S,16^2R,16^4S,4R,13R,19R,28R)-13,28-diisobutyl-5,12,15,20,27,30-hexaoxo-2^1,17^1-bis(triisopropylsilyl)-2^1H,17^1H-6,21-dioxa-11,14,26,29-tetraaza-1(4,2),16(2,4)-dimorpholina-2,17(4,3)-diindolacyclotriacontaphane-4,19-diyl)bis(1,1,1-trifluoromethanesulfonamide)], the “Tolerated dose over minimum effective dose” value (Subacute toxicity test; 200 mg/kg versus minimum effective dose) is reported as “more than 20 folds”, the Food/water intake (Subacute toxicity test; C57BL/6 male mice, oral 200 mg/kg, 7 days, normal body weight) is reported as “mildly decreased” and the “Liver injury indicated by serum ALT and AST” value (Subacute toxicity test; [2]) is reported as “did not cause liver injury”. For the same molecule, the “Organ morphology, small intestine and colon length, organ weight” value (Subacute toxicity test; [2]) was “no difference”, the “Body weight and food/water intake” value (Subacute toxicity test; C57BL/6 male mice, oral 20 and 100 mg/kg, 7 days) was “did not affect” and the MTD at 168 h (Subacute toxicity test; mouse, in vivo, C57BL/6 male mice, oral, 7 days, highest dosage tested, read-out: Highest dosage with good tolerance) was 200 mg/kg. The inhibition at 10 µM (PPARδ) was 18.9%, the “Agonistic activity (SRC2-3 recruitment, compound alone)” value ([1]; DC646 alone, Fig. 2e) was “no agonistic activity” and the “Disruption of hFXRα-LBD-SRC2-3 interaction induced by Ivermectin” value ([1]; DC646 at 11 μmol/L, Ivermectin 5 μmol/L) was “competitively disrupted”. For the same molecule, the IC50 ([1]; IC50, DC646 combined with CDCA, adding order: DC646 combined with CDCA, Fig. 4b) was 12.2 µM, the IC50 ([1]; IC50 in recruiting the SRC2-3 peptide in the presence of CDCA, in the presence of CDCA (50 μmol/L), Fig. 2f) was 8.86 µM and the “Effect on CDCA agonism when adding DC646 before CDCA” value ([1]; adding order: CDCA after DC646) was “completely blunted the agonism of CDCA”. The “Antagonism when adding DC646 after CDCA” value ([1]; adding order: DC646 after CDCA) was “no antagonism”, the “F4/80 staining, macrophage infiltration in the liver” value (MCD diet-induced MASH; DC646 10 mg/kg) was “good efficacy in reducing macrophage infiltration” and the “Hepatic FXR signaling in MASH mice” value (MCD diet-induced MASH; DC646 10 mg/kg) was “without affecting”. For the same molecule, the “Hepatic triglyceride (TG) levels” value (MCD diet-induced MASH; DC646 10 mg/kg) was “markedly reduced”, the “Intestinal FXR signaling in MASH mice” value (MCD diet-induced MASH; DC646 10 mg/kg) was “selectively inhibited” and the “NAFLD activity scoring (NAS)” value (MCD diet-induced MASH; DC646 10 mg/kg) was “alleviating MASH pathologies”. For the same molecule, the “Hepatic mRNA levels of inflammation-related genes” value (MCD diet-induced MASH; DC646 10 mg/kg, GUDCA 50 mg/kg) was “notable reduction”, the “Hepatic mRNA levels of lipid metabolism-related genes / hepatic lipid accumulation” value (MCD diet-induced MASH; [3]) was “reduce the mRNA levels” and the “Serum alanine aminotransferase (ALT) level” value (MCD diet-induced MASH; [3]) was “significantly lowered”. The “H&E and Oil Red O staining, lipid droplets” value (MCD diet-induced MASH; versus vehicle-, GUDCA- and OCA-treated groups) was “fewer lipid droplets”.
